What was measured:
Format in all cases: cell-based
Pseudomonas alcaligenes = assay: Wood preservative efficacy against bacteria and yeasts, tryptose agar plates; design: key: 0 = growth equal to control, 1 = inhibition, 2 = no growth; settings: 100 ppm in tryptose agar
Method: (§1) Compositions were prepared by dissolving the compounds shown in Table 1 in 50% ethanol and further diluting with sterile distilled water. […] After cooling, the medium was inoculated with the bacteria listed below. After sufficient growth of the untreated cultures, the compounds were evaluated using the following rating system: 0=growth equal to control 1=inhibition of growth by the compound 2=no growth under the influence of the compound. In this Table, the higher numbers are the most preferred species. Pseudomonas alcaligenes (gram neg)

Pseudomonas aeruginosa = assay: as above; design: key: 0 = growth equal to control, 1 = growth inhibited, 2 = no growth; settings: 100 ppm in tryptose agar
Method: as §1, with “aeruginosa” for “alcaligenes”

Debaryomyces hansenii = assay: as above; design: key: 0 = growth equal to control, 1 = inhibition, 2 = no growth
Method: as §1, with “Debaryomyces hansenii (yeast)” for “Pseudomonas alcaligenes (gram neg)”

Enterobacter aerogenes = assay: as above; design: key: 0 = growth equal to control, 1 = inhibition, 2 = no growth; settings: 100 ppm in tryptose agar
Method: as §1, with “Enterobacter aerogenes” for “Pseudomonas alcaligenes”

Coriolus versicolor = assay: Wood preservative efficacy against fungi, agar plate colony diameter; settings: Test dosage 10 ppm, Table 6A
Method: (§2) Each plate was inoculated with a spore suspension or with a small piece of agar (1 mm) from the margin of an actively growing colony of the test fungus. The fungi employed are listed below. After incubation at 22° C. and 70% relative humidity during a period long enough to allow significant growth of untreated controls, the diameters of the fungus colonies were measured and scored using the following rating system: 0=free of fungal growth 1=25% of fungal growth compared to untreated 2=50% of fungal growth compared to untreated 3=75% of fungal growth compared to untreated 4=Growth equal to that of untreated The scores measured for wood preservation efficacy of the compounds of this invention are listed in Tables 6a and 6b. In these Tables, the lower numbers are the most preferred species. Coriolus versicolor

Coniophora puteana = assay: as above; design: key: 0 = no fungal growth, 1-3 = 25/50/75% of untreated, 4 = equal; settings: Test dosage 10 ppm, Table 6A
Method: as §2, with “Coniophora puteana (syn. C. cerebella)” for “Coriolus versicolor”

Cladosporium resinae = assay: as above; settings: Test dosage 10 ppm, Table 6A
Method: as §2, with “Cladosporium resinae (syn Hormonocanis resinae, Amorphotheca resinae)” for “Coriolus versicolor”

[1] = tested on: molds and blue-stain fungi; assay: In vitro activity against molds and blue-stain fungi, poison plate assay (MIC); settings: malt extract agar, complete inhibition
Summary of the method: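 Poison plate format: compound diluted in sterile water and mixed into malt extract agar, then plates inoculated with each fungus. Growth inhibition scored at each concentration to give the MIC.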

Structure (SMILES): [O-][S+]1CCON=C1c1ccc(Cl)c(Cl)c1 (centres unmarked) [Compound 4]
- Score of bactericidal activity, P. alcalgenes (Pseudomonas alcaligenes): 1
- Score of bactericidal activity, P. aeruginosa (Pseudomonas aeruginosa): 0
- Score of bactericidal activity, D. hansenii (Debaryomyces hansenii; 10 ppm in tryptose agar): 2
- Score of bactericidal activity, D. hansenii (Debaryomyces hansenii; 100 ppm in tryptose agar): 2
- Score of bactericidal activity, E. aerogenes (Enterobacter aerogenes): 0
- Score of fungicidal activity, C. VERSICLOR (Coriolus versicolor): 0
- Score of fungicidal activity, C. PUTEANA (Coniophora puteana): 0
- Score of fungicidal activity, CL RESINAE (Cladosporium resinae): 0
- MIC (ppm) against A. amstelodami ([1]; A. amstelodami): 10 ppm
- MIC (ppm) against A. niger ([1]; A. niger): 2.5 ppm
- MIC (ppm) against A. pullulans ([1]; A. pullulans): 10 ppm
- MIC (ppm) against A. versicolor ([1]; A. versicolor): 5 ppm
- MIC (ppm) against C. cladosporioides ([1]; C. cladosporioides): 10 ppm
- MIC (ppm) against C. pilifera ([1]; C. pilifera): 5 ppm
- MIC (ppm) against F. solani ([1]; F. solani): 10 ppm
- MIC (ppm) against G. candidum ([1]; G. candidum): 25 ppm
- MIC (ppm) against P. purpurogenum ([1]; P. purpurogenum): 10 ppm
- MIC (ppm) against P. variotii ([1]; P. variotii): 10 ppm
- MIC (ppm) against P. violacea ([1]; P. violacea): 25 ppm
- MIC (ppm) against S. atra ([1]; S. atra): 2.5 ppm
- MIC (ppm) against S. entoxylina ([1]; S. entoxylina): 10 ppm
- MIC (ppm) against T. viride ([1]; T. viride): 25 ppm
- MIC (ppm) against U. atrum ([1]; U. atrum): 25 ppm

Reference: patent publication US6372297B1, “Wood preservative oxathiazines” (Uniroyal Chemical Company, Inc., priority 1993, dated 2002)
